Measured values published in patent US20250144050A1, “AMINOTHIOL-CONJUGATES, COMPOSITIONS, AND METHODS OF USE THEREOF” (THE BURLINGTON HC RESEARCH GROUP, INC., priority 2021, published 2025).
Like-named read-outs stand apart in the source and are kept apart here.

Experiments:
NCI-H460 NSCLC cells = assay type: cell-based
Experimental: (§4) Trypan Blue exclusion was applied as a complementary confirmation probe for cell death.
(§5) Statistical comparisons of differences in individual dose-response metrics between individual/paired drug treatments and various cell lines were conducted using the Student's t-test, with P-values <0.05 considered significant.
(§6) Relative cell growth inhibition values for differing levels each drug alone and in combination were input into SynergyFinder to generated dose-response curves for each drug alone, to produce a dose-response matrix, to visualize the distribution of areas of differing degrees of synergism in a 2-dimension heatmap and 3-dimension volcano plot, and to calculate average and maximum synergy scores in selected human cancer cell lines. […] Synergy scores <10 means that the interaction between two drugs was likely to be antagonistic; scores from −10 to 10 means the interaction between two drugs was likely to be additive; and scores >10 means the interaction between two drugs was likely to be synergistic.

[1] = test system: PPM-Mill malignant mesothelioma cells; assay type: cell-based
Experimental: as §4, §5, §6

[2] = test system: TOV21G ovarian cancer cells; assay type: cell-based
Experimental: as §4, §5, §6

HPM3 cells = test: Dose-response metrics in immortalized, non-tumorigenic cells; assay type: cell-based
Experimental: (§1) To determine potential cytostatic or cytocidal effects of BRG prodrugs in immortalized, non-tumorigenic cells, Vero, HEK-293t, LP9, and HPM3 cells were exposed to 4SP65 while only Vero cells also were treated with 1LP65. […] Comparisons across other dose-response metrics could not be made because such levels of effects were not induced in NHMECs exposed to 4SP65. […] Since cytostatic and cytolytic effects at the TGI and LC50/99 levels were induced in Vero cells exposed to 1LP65 but not in NHMECs, there is a significant difference in the effects of 1LP65 in Vero cells compared to NHMECs, but p values based upon t-test evaluations cannot be defined due to lack of numerical data.

HEK-293t cells = assay type: cell-based
Experimental: as §1

LP9 cells = assay type: cell-based
Experimental: as §1

Solubility testing = assay type: physicochemical
Experimental: (§2) The solubility of 4SP65 was tested in de-ionized water, PBS, DMSO, and RPMI or DMEM base medium with and without FBS. […] The difference in the starting weight of drug placed into solvent minus the weight of the residue after drying on a vacuum pump was considered to represent the amount of drug that went into solution. The amount of drug that was dissolved at a given time ranged from 40 to 61%, averaging 49.7±8.1% (SD). The weight of the 4SP65 in solution was then used for diluting the drug to concentrations of 200 or 400 μM in supplemented RPMI or DMEM/F12 medium for routine treatment of cells. The dried residue was not used in the in vitro drug efficacy studies. […] However, unintended topical entanglements between polymer chains of multi-arm PEG-thiol molecules without disulfide formation have been reported (Tang and Olsen, “Controlling Topological Entanglement in Engineered Protein Hydrogels with a Variety of Thiol Coupling Chemistries,” Front. Chem. 2:23 (2014), which is hereby incorporated by reference in its entirety). Aliquots of 4SP65 dissolved in FBS enriched medium has remained stable for >6 months while remnants of the original viscous polymer have maintained stability without any apparent loss of activity when stored for 60 months at −20° C.
(§3) The boc deprotected aminothiol conjugated to m-PEG6-thiol was dried on a vacuum pump overnight to yield a viscous oil that on analysis gave rise to spectra corresponding to 1LP65 as a di-trifluroacetic acid salt at a MW of 672.87 Da (FIG. 15), or a MW of 483 once dissolved in solution. As such, 1LP65 is soluble 100% DMSO or aqueous solution. However, the bulk of the product was dissolved at 40 mM in DMSO and stored in aliquots at −80° C. for future use once by further dilution in DMSO and then final dilution in medium for treatment of normal human epithelium and human cancer cell lines at working solutions of 4 mM or 400 μM drug. 1LP65 has maintained stability for six months in frozen aliquots but should be stable in DMSO at −80° C. for two to three years based upon recommended storage conditions for cystamine dihydrochloride (Selleck Chemical product information), an analogous 225 Da compound with a disulfide bond and amine groups like 1LP65.

Storage stability = assay type: physicochemical
Experimental: as §2
as §3, with “1LP65 has maintained stability for six months in frozen aliquots but should be stable in DMSO at −80° C. for two to three years based upon recommended storage conditions for cystamine dihydrochloride (Selleck Chemical product information), an analogous 225 Da compound with a disulfide bond and amine groups like 1LP65.” left out

A549 NSCLC cells = conditions: 48 h; for GI50 / IC50 / LC99 / TGI: each drug alone
Experimental: as §4, §5, §6

PC3 cells = test: CyQUANT cell viability assay, 48-hour exposure; assay type: cell-based; conditions: Homo sapiens, PC-3
Experimental: After drug treatments, fluorescence readings from 96-well plates were obtained using the CyQUANT dye and compared to standard curves for each cell line to determine cell viability. […] Trypan blue exclusion was used to estimate cell numbers in a few pilot experiments and was thereafter applied to confirm cell death.
A series of experiments was conducted to assess the relative efficacy of 4SP65, 1LP65, and amifostine as single agents in the same human cancer cell lines. First, the effectiveness of 4SP65 was tested against 15 cancer cell lines derived from seven tissues. […]
Trans. […] Using cell numbers based on fluorescence measurements and standard curves [time zero, (Tz), control growth, (C), and test growth in the presence of drug at five or more concentration levels (Ti)], the percentage growth was calculated at each drug concentration level. The percentage of growth inhibition was calculated as follows:
The LC50/99 was calculated using Equation 2=−50 and Eq. 2=−99, respectively. […] For NHMECs, the relationships between drug exposure levels and fluorescence units were used to define dose-response metrics. The selectivity index (SI) values for individual drug treatments were calculated as IC50 levels in NHMECs divided by the IC50 values in cancer cell lines.

[3] = Dose-response metrics in immortalized, non-tumorigenic cells; assay type: cell-based; conditions: African green monkey, Vero cells (immortalized, non-tumorigenic); read-out: LC50 (the source's name)
Experimental: as §1

[4] = NCI-H460, each drug alone, 48 h
[5] = PPM-Mill, each drug alone, 48 h

4-star PEG-S-S-WR1065 [4SP65]
CC50 (NCI-H460 NSCLC cells): 17.6 ± 0.5 µM
Fold increase in efficacy at GI50 (NCI-H460 NSCLC cells; NCI-H460, drug alone vs in 4SP65-cisplatin combination): 36 fold
GI50 (NCI-H460 NSCLC cells; [4]): 12.3 ± 1.1 µM
IC50 (NCI-H460 NSCLC cells; [4]): 13.3 ± 1 µM
LC99 (NCI-H460 NSCLC cells; [4]): 18.2 ± 0.4 µM
TGI (NCI-H460 NSCLC cells; [4]): 16.9 ± 0.6 µM
CC50 [1]: 16.2 ± 3.2 µM
GI50 [1, 5]: 8.4 ± 1.5 µM
IC50 [1, 5]: 10 ± 1.9 µM
LC99 [1, 5]: 17.6 ± 3.5 µM
TGI [1, 5]: 14.1 ± 3.3 µM
CC50 [2]: 2.7 ± 0.1 µM
LC99, amount of each drug in combination ([2]; TOV21G, 4SP65-cisplatin combined, 48 h): 0.95 µM
GI50 ([2]; TOV21G, each drug alone, 48 h): 0.93 ± 0.37 µM
IC50 ([2]; TOV21G, each drug alone, 48 h): 1.2 ± 0.3 µM
LC99 ([2]; TOV21G, each drug alone, 48 h): 3.0 µM
TGI ([2]; TOV21G, each drug alone, 48 h): 2.0 ± 0.4 µM
GI50 (HPM3 cells): ~10 µM
CC50 (HEK-293t cells): 60.6 µM
GI50 (HEK-293t cells; HEK-293t): 15.8 µM
LC99 (HEK-293t cells; HEK-293t): 62.4 µM
TGI (HEK-293t cells; HEK-293t): 58.8 µM
CC50 (LP9 cells): 19 µM
GI50 (LP9 cells; LP9): 9.2 µM
TGI (LP9 cells; LP9): 13.5 µM
highest level that could be tested based upon maximum solubility in aqueous medium (Solubility testing; aqueous medium): 150 µM
amount of drug that was dissolved, averaging (SD) (Solubility testing; aqueous solvents/medium): 49.7±8.1%
solubility (Solubility testing; de-ionized water, PBS, DMSO, RPMI or DMEM base medium with and without FBS): partially soluble in all media evaluated except DMSO
concentration above which a hydrogel forms (Solubility testing; in medium): above 300 micromolar
time remained stable (Storage stability; dissolved in FBS enriched medium): > 6 months
time stability maintained without apparent loss of activity (Storage stability; original viscous polymer stored at −20° C.): 60 months
LC99, amount of each drug in combination (A549 NSCLC cells; 4SP65-cisplatin combined): 8 µM
GI50 (A549 NSCLC cells; cisplatin series): 5.4 ± 2.5 µM
IC50 (A549 NSCLC cells; cisplatin series): 6.8 ± 1.3 µM
LC99 (A549 NSCLC cells; cisplatin series): 14.9 ± 3.8 µM
TGI (A549 NSCLC cells; cisplatin series): 8.3 ± 1.5 µM
GI50 (A549 NSCLC cells; gefitinib series): 6 ± 0.6 µM
IC50 (A549 NSCLC cells; gefitinib series): 7.4 ± 0.7 µM
LC99 (A549 NSCLC cells; gefitinib series): 12.3 ± 3.8 µM
TGI (A549 NSCLC cells; gefitinib series): 11.3 ± 1.5 µM

COCCOCCOCCOCCOCCOCCSSCCNCCCN [1LP65, m-PEG6-S-S-WR1065]
GI50 (PC3 cells): 22.9 µM
CC50 [3]: 129 ± 3.4 µM
solubility (Solubility testing; 100% DMSO or aqueous solution): soluble
time stability maintained (Storage stability; frozen aliquots, 40 mM in DMSO at −80° C.): six
